Laboratory results reported in publication PMC2848536 (Journal of medicinal chemistry, 2010).
“Also recorded” adds a separate entry of the source.

Tests used:
[1] = tested on: actin cytoskeleton of HeLa cells; assay: HeLa cell microfilament; format: cell-based, human; details: 24 h, result in words
microfilaments = details: result in words; cited from earlier work
HCT-116 cells = details: read-out: IC50 against HCT-116 cells, cytotoxicity; cited from earlier work

| Compound | microfilament disruption at 80 nM [1] | MF disruption at 5 µM (microfilaments) | IC50 (HCT-116 cells) |
| --- | --- | --- | --- |
| jasplakinolide F [Compound 4] | exhibited microfilament disruption |  |  |
| C=C1C[C@H](C)C(=O)N[C@@H](C)C(=O)N(C)[C@H](Cc2c(Br)[nH]c3ccccc23)C(=O)N[C@@H](c2ccc(O)cc2)CC(=O)O[C@@H](C)C[C@@H](C)C1=O [Compound 11, jasplakinolide B] | without microfilament disruption; also recorded: without MF disruption; also recorded: did not exhibit microfilament-disrupting activity |  |  |
| 18-epi-latrunculol |  | without MF disruption | 2100 nM |
| C/C1=C\[C@H](C)C[C@H](C)OC(=O)C[C@H](c2ccc(O)cc2)NC(=O)[C@@H](Cc2c(Br)[nH]c3ccccc23)N(C)C(=O)[C@H](C)NC(=O)[C@@H](C)C1 [Compound 1, jasplakinolide] | exhibited microfilament disruption |  |  |
